Source: PubChem BioAssay AID1963424 (Molecular Pharmacology Branch, DTP, NCI, 2024)

Test system: 327498-153-R-J2-PDC complex spheroid growth, % test/control
Assay: Anticancer human tumor 327498-153-R-J2-PDC patient-derived uterine carcinosarcoma cell line growth inhibition [Asc]
Settings: for viability, T/C: stronger effect = lower value; active = viability on the fitted dose curve at most 10% of control; inactive = the rest
In short: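 Tumor cells were grown as multicellular spheroids with stromal HUVEC and mesenchymal stem cells and treated singly or in combination. Concentrations fell in half-log steps from the clinical Cmax, or from 10 microM where none was known.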
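Note: spheroids exposed to compound for 7 days after 3 days of growth.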
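Throughout, for viability, T/C: 100% = DMSO vehicle control wells.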

Cc1nc(N2CCC3(CC2)COC(C)C3N)c(CO)nc1Sc1ccnc(N)c1Cl (stereo unspecified) + CCN1C(C(=O)NC23CCC(C(=O)O)(CC2)CC3)C(c2cccc(Cl)c2F)C2(C(=O)Nc3cc(Cl)ccc32)C12CCCCC2
242 nM: IC50 (curve of first compound, second compound 0.03 µM)
48.4 nM: IC50 (curve of first compound, second compound 0.0949 µM)
< 9.49 nM: IC50 (curve of first compound, second compound 0.3 µM) | IC50 (curve of first compound, second compound 0.949 µM) | IC50 (curve of first compound, second compound 3 µM)
inactive: viability, T/C (second compound 0.03 µM, first compound 0.00949 µM) 79.9% | viability, T/C (second compound 0.03 µM, first compound 0.03 µM) 74.8% | viability, T/C (second compound 0.03 µM, first compound 0.0949 µM) 64.1% | viability, T/C (second compound 0.03 µM, first compound 0.3 µM) 44% | viability, T/C (second compound 0.03 µM, first compound 0.949 µM) 41% | viability, T/C (second compound 0.03 µM, first compound 3 µM) 30.3% | viability, T/C (second compound 0.0949 µM, first compound 0.00949 µM) 57% | viability, T/C (second compound 0.0949 µM, first compound 0.03 µM) 58% | viability, T/C (second compound 0.0949 µM, first compound 0.0949 µM) 41.3% | viability, T/C (second compound 0.0949 µM, first compound 0.3 µM) 27.8% | viability, T/C (second compound 0.0949 µM, first compound 0.949 µM) 22.2% | viability, T/C (second compound 0.0949 µM, first compound 3 µM) 15.7% | viability, T/C (second compound 0.3 µM, first compound 0.00949 µM) 30.7% | viability, T/C (second compound 0.3 µM, first compound 0.03 µM) 24.3% | viability, T/C (second compound 0.3 µM, first compound 0.0949 µM) 13.7% | viability, T/C (second compound 0.3 µM, first compound 0.3 µM) 12.3%
active: viability, T/C (second compound 0.3 µM, first compound 0.949 µM) 8.52% | viability, T/C (second compound 0.3 µM, first compound 3 µM) 6.36% | viability, T/C (second compound 0.949 µM, first compound 0.00949 µM) 6.38% | viability, T/C (second compound 0.949 µM, first compound 0.03 µM) 6.83% | viability, T/C (second compound 0.949 µM, first compound 0.0949 µM) 2.73% | viability, T/C (second compound 0.949 µM, first compound 0.3 µM) 11.8% | viability, T/C (second compound 0.949 µM, first compound 0.949 µM) 2.12% | viability, T/C (second compound 0.949 µM, first compound 3 µM) 2.01% | viability, T/C (second compound 3 µM, first compound 0.00949 µM) 2.07% | viability, T/C (second compound 3 µM, first compound 0.03 µM) 2.17% | viability, T/C (second compound 3 µM, first compound 0.0949 µM) 2.3% | viability, T/C (second compound 3 µM, first compound 0.3 µM) 2.57% | viability, T/C (second compound 3 µM, first compound 0.949 µM) 0.76% | viability, T/C (second compound 3 µM, first compound 3 µM) 0.83%

O=C(c1cc(Cc2n[nH]c(=O)c3ccccc23)ccc1F)N1CCN(C(=O)C2CC2)CC1 + Cc1c(S(C)(=O)=O)c(-c2cc(F)cc(N3CCN(c4ccc(NS(=O)(=O)c5ccc(NC(CCN6CCC(C(=O)OCCCP(=O)(O)O)CC6)CSc6ccccc6)c(S(=O)(=O)C(F)(F)F)c5)cc4)CC3)c2)c(-c2ccc(Cl)cc2)n1C(C)C
3150 nM: IC50 (curve of first compound, second compound 10 µM)
active: viability, T/C (second compound 0.1 µM, first compound 10 µM) 9.69% | viability, T/C (second compound 0.316 µM, first compound 10 µM) 7.08% | viability, T/C (second compound 1 µM, first compound 10 µM) 6.29% | viability, T/C (second compound 3.16 µM, first compound 10 µM) 4.54% | viability, T/C (second compound 10 µM, first compound 10 µM) 6.96%
2500 nM: IC50 (curve of first compound, second compound 3.16 µM)
2490 nM: IC50 (curve of first compound, second compound 1 µM)
2530 nM: IC50 (curve of first compound, second compound 0.316 µM)
inactive: viability, T/C (second compound 0.1 µM, first compound 0.0316 µM) 103% | viability, T/C (second compound 0.1 µM, first compound 0.1 µM) 102% | viability, T/C (second compound 0.1 µM, first compound 0.316 µM) 88.6% | viability, T/C (second compound 0.1 µM, first compound 1 µM) 88.1% | viability, T/C (second compound 0.1 µM, first compound 3.16 µM) 55.5% | viability, T/C (second compound 0.316 µM, first compound 0.0316 µM) 85.4% | viability, T/C (second compound 0.316 µM, first compound 0.1 µM) 89.2% | viability, T/C (second compound 0.316 µM, first compound 0.316 µM) 86.4% | viability, T/C (second compound 0.316 µM, first compound 1 µM) 75.4% | viability, T/C (second compound 0.316 µM, first compound 3.16 µM) 43.9% | viability, T/C (second compound 1 µM, first compound 0.0316 µM) 94.5% | viability, T/C (second compound 1 µM, first compound 0.1 µM) 102% | viability, T/C (second compound 1 µM, first compound 0.316 µM) 86.9% | viability, T/C (second compound 1 µM, first compound 1 µM) 76.9% | viability, T/C (second compound 1 µM, first compound 3.16 µM) 43% | viability, T/C (second compound 3.16 µM, first compound 0.0316 µM) 94% | viability, T/C (second compound 3.16 µM, first compound 0.1 µM) 89.5% | viability, T/C (second compound 3.16 µM, first compound 0.316 µM) 86% | viability, T/C (second compound 3.16 µM, first compound 1 µM) 76% | viability, T/C (second compound 3.16 µM, first compound 3.16 µM) 43.2% | viability, T/C (second compound 10 µM, first compound 0.0316 µM) 164% | viability, T/C (second compound 10 µM, first compound 0.1 µM) 164% | viability, T/C (second compound 10 µM, first compound 0.316 µM) 157% | viability, T/C (second compound 10 µM, first compound 1 µM) 112% | viability, T/C (second compound 10 µM, first compound 3.16 µM) 49.1%
3740 nM: IC50 (curve of first compound, second compound 0.1 µM)

Cc1c(S(C)(=O)=O)c(-c2cc(F)cc(N3CCN(c4ccc(NS(=O)(=O)c5ccc(NC(CCN6CCC(C(=O)OCCCP(=O)(O)O)CC6)CSc6ccccc6)c(S(=O)(=O)C(F)(F)F)c5)cc4)CC3)c2)c(-c2ccc(Cl)cc2)n1C(C)C (stereo unspecified)
inactive: viability, T/C (compound 0.1 µM) 94.6% [middle of 14 runs] | viability, T/C (compound 0.316 µM) 96.1% [middle of 14 runs] | viability, T/C (compound 1 µM) 94.4% [middle of 14 runs] | viability, T/C (compound 3.16 µM) 90.3% [middle of 14 runs] | viability, T/C (compound 10 µM) 166% [middle of 14 runs]
> 10000 nM: IC50 (compound alone, run of 09/27/2022)
